Results: patent US20230183219A1, “CONDENSED SUBSTITUTED HYDROPYRROLES AS ANTAGONISTS OF THE MUSCARINIC ACETYLCHOLINE RECEPTOR M4” (Vanderbilt University, priority 2020, published 2023)

Target: T1, Human M4 (Homo sapiens, UniProt P08173)
T1 construct: Human or rat M4 cDNA, along with the chimeric G protein Gqi5, were transfected into Chinese hamster ovary (CHO-K1) cells; expressed in transfected cells; host or cells: CHO-K1 (Chinese hamster ovary, ATCC), stably co-expressing Gqi5
T1 sequence (P08173 1-479): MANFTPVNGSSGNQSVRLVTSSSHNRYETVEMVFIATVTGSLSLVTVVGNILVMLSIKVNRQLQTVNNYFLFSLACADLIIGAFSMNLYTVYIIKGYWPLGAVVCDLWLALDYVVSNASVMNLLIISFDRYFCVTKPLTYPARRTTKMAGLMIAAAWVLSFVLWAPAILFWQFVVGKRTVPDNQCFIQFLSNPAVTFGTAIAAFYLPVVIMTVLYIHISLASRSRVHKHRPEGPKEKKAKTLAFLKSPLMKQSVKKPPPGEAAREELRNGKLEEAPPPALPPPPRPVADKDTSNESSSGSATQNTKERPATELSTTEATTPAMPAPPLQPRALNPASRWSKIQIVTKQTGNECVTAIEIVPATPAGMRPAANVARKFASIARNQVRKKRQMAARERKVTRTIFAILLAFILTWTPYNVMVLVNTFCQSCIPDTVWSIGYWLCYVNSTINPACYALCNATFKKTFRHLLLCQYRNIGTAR
Assay: mAChR M4 cell-based functional assay (calcium flux, decrease of EC80 acetylcholine response)
Conditions: for remaining activity at 30 µM: read-out: Human M4 Emin; for IC50: M4/Gqi5/CHO-K1 cells, decrease of response to EC80 acetylcholine
Experimental: Human or rat M4 cDNA, along with the chimeric G protein Gqi5, were transfected into Chinese hamster ovary (CHO-K1) cells purchased from the American Type Culture Collection using Lipofectamine2000. M4/Gqi5/CHO cells were grown in Ham's F-12 medium containing 10% heat-inactivated fetal bovine serum (FBS), 20 mM HEPES, 500 μg/mL G418 sulfate, and 200 μg/mL Hygromycin B.
For high throughput measurement of agonist-evoked increases in intracellular calcium, CHO-K1 cells stably expressing muscarinic receptors were plated in growth medium lacking G418 and hygromycin at 15,000 cells/20 μL/well in Greiner 384-well black-walled, tissue culture (TC)-treated, clear-bottom plates (VWR). Cells were incubated overnight at 37° C. and 5% CO2. The next day, cells were washed using an ELX 405 (BioTek) with assay buffer; the final volume was then aspirated to 20 μL. Next, 20 μL of a 2.3 μM stock of Fluo-4/acetoxymethyl ester (Invitrogen, Carlsbad, Calif.), prepared as a 2.3 mM stock in DMSO and mixed in a 1:1 ratio with 10% (w/v) Pluronic F-127 and diluted in assay buffer, was added to the wells and the cell plates were incubated for 50 min at 37° C. and 5% CO2. Dye was removed by washing with the ELX 405 and the final volume was aspirated to 20 μL. Compound master plates were formatted in a 10 point concentration-response curve (CRC) format (1:3 dilutions) in 100% DMSO with a starting concentration of 10 or 1 mM using a BRAVO liquid handler (Agilent). Test compound CRCs were then transferred to daughter plates (240 nL) using the Echo acoustic plate reformatter (Labcyte, Sunnyvale, Calif.) and then diluted into assay buffer (40 μL) to a 2×stock using a Thermo Fisher Combi (Thermo Fisher Scientific, Waltham, Mass.).
Calcium flux was measured using the Functional Drug Screening System (FDSS) 6000 or 7000 (Hamamatsu Corporation, Tokyo, Japan) as an increase in the fluorescent static ratio. Compounds were applied to cells (20 μL, 2×) using the automated system of the FDSS at 2 seconds into the protocol and the data were collected at 1 Hz. At 143 s, 10 μL of an EC20 concentration of the muscarinic receptor agonist acetylcholine was added (5×), followed by the addition of 12 μL of an EC80 concentration of acetylcholine at the 268 s time point (5×). Agonist activity was analyzed as a concentration-dependent increase in calcium mobilization upon compound addition. Positive allosteric modulator activity was analyzed as a concentration-dependent increase in the EC20 acetylcholine response. Antagonist activity was analyzed as a concentration-dependent decrease in the EC80 acetylcholine response; for the purposes of the tables herein, an IC50 (inhibitory concentration 50) was calculated as a concentration-dependent decrease of the response elicited by an EC80 concentration of acetylcholine. Concentration-response curves were generated using a four-parameter logistical equation in XLFit curve fitting software (IDBS, Bridgewater, N.J.) for Excel (Microsoft, Redmond, Wash.) or Prism (GraphPad Software, Inc., San Diego, Calif.) or the Dotmatics software platform (Dotmatics, Bishop's Stortford, UK).
Compounds were synthesized as described above. Activity (IC50 and Emin) was determined in the mAChR M4 cell-based functional assay as described above and the data are shown in Table 2.

Compound | remaining activity at 30 µM (% ACh maximum at 30 μM) [%] | IC50 [nM] | Human M4 Emin (% ACh maximum at 30 μM) [%]
Cn1cc(-c2cc(C(F)(F)F)c(N[C@H]3C[C@@H]4CN(CC5CCOCC5)C[C@@H]4C3)nn2)cn1 [Example 66, (3aR,5s,6aS)-N-(6-(1-methyl-1H-pyrazol-4-yl)-4-(trifluoro-methyl)pyridazin-3-yl)-2-((tetrahydro-2H-pyran-4-yl)methyl)octahydro-cyclopenta[c]pyrrol-5-amine] | 3 | 119 | 
Cc1nn(C)c(C)c1-c1cc(C(F)(F)F)c(N[C@H]2C[C@@H]3CN(CC4CCOCC4)C[C@@H]3C2)nn1 [Example 40, (3aR,5s,6aS)-2-((tetrahydro-2H-pyran-4-yl)methyl)-N-(4-(trifluoromethyl)-6-(1,3,5-trimethyl-1H-pyrazol-4-yl)pyridazin-3-yl)octahydro-cyclopenta[c]pyrrol-5-amine] | 4 | 184 | 
Fc1cc(F)c(F)c(-c2cc(C(F)(F)F)c(N[C@H]3C[C@@H]4CN(CC5CCOCC5)C[C@@H]4C3)nn2)c1 [Example 43, (3aR,5s,6aS)-2-((tetrahydro-2H-pyran-4-yl)methyl)-N-(4-(trifluoromethyl)-6-(2,3,5-trifluorophenyl)pyridazin-3-yl)octahydro-cyclopenta[c]pyrrol-5-amine] | 3 | 290 | 
Cn1cc2cc(-c3cc(C(F)(F)F)c(N[C@H]4C[C@@H]5CN(CC6CCCOC6)C[C@@H]5C4)nn3)ccc2n1 (single isomer, unassigned) [Example 37] |  | 76.1 | 5
[2H][C@@]1(Oc2nnc(-c3cc(F)ccc3C)cc2C(F)(F)F)C[C@H]2CN(Cc3ccccn3)C[C@H]2C1 [Example 134, (3aR,5s,6aS)-5-((6-(5-fluoro-2-methylphenyl)-4-(trifluoro-methyl)pyridazin-3-yl)oxy)-2-(pyridin-2-ylmethyl)octahydro-cyclopenta[c]pyrrole-5-d] | 6 | 2830 | 
Cn1cc2cc(-c3cnc(N[C@H]4C[C@@H]5CN(CCC(C)(C)C)C[C@@H]5C4)nc3)ccc2n1 [Example 14, (3aR,5s,6aS)-2-(3,3-dimethyl-butyl)-N-(5-(2-methyl-2H-indazol-5-yl)pyrimidin-2-yl)octahydro-cyclopenta[c]pyrrol-5-amine] | 4 | 394 | 
Cn1ccc2cc(-c3cc(C(F)(F)F)c(N[C@H]4C[C@@H]5CN(CC6CCOCC6)C[C@@H]5C4)nn3)ccc21 [Example 87, (3aR,5s,6aS)-N-(6-(1-methyl-1H-indol-5-yl)-4-(trifluoromethyl)pyridazin-3-yl)-2-((tetrahydro-2H-pyran-4-yl)methyl)octahydro-cyclopenta[c]pyrrol-5-amine] | 4 | 89.6 | 
Cc1cc(-c2cc(C(F)(F)F)c(N[C@H]3C[C@@H]4CN(CC5CCOCC5)C[C@@H]4C3)nn2)c(F)cc1F [Example 92, (3aR,5s,6aS)-N-(6-(2,4-difluoro-5-methylphenyl)-4-(trifluoromethyl)pyridazin-3-yl)-2-((tetrahydro-2H-pyran-4-yl)methyl)octahydro-cyclopenta[c]pyrrol-5-amine] | 2 | 338 | 
Cc1c(-c2nnc(N(C)[C@H]3C[C@@H]4CN(CC5CCOCC5)C[C@@H]4C3)cc2C(F)(F)F)ccc2nn(C)cc12 [Example 7, (3aR,5s,6aS)—N-(6-(2,4-dimethyl-2H-indazol-5-yl)-5-(trifluoromethyl)pyridazin-3-yl)-N-(methyl-d3)-2-((tetrahydro-2H-pyran-4-yl)methyl)octahydrocyclopenta [c]pyrrol-5-amine] |  | 3670 | 
Fc1cccc(-c2cc(C(F)(F)F)c(N[C@H]3C[C@@H]4CN(CC5CCOCC5)C[C@@H]4C3)nn2)c1F [Example 81, (3aR,5s,6aS)-N-(6-(2,3-difluorophenyl)-4-(trifluoro-methyl)pyridazin-3-yl)-2-((tetrahydro-2H-pyran-4-yl)methyl)octahydro-cyclopenta[c]pyrrol-5-amine] | 3 | 178 | 

Stronger by IC50, values ahead:

remaining activity at 30 µM (% ACh maximum at 30 μM) [%] | IC50 [nM] | Human M4 Emin (% ACh maximum at 30 μM) [%] | Compound
3 | 41.2 |  | [2H]C([2H])(C1CCOCC1)N1C[C@H]2C[C@H](Nc3nnc(-c4ccccc4)cc3C(F)(F)F)C[C@H]2C1 [Example 108, (3aR,5s,6aS)-N-(6-phenyl-4-(trifluoromethyl)pyridazin-3-yl)-2-((tetrahydro-2H-pyran-4-yl)methyl-d2)octahydro-cyclopenta[c]pyrrol-5-amine]
3 | 6.1 |  | Cc1cnc(F)cc1-c1cc(C(F)(F)F)c(N[C@H]2C[C@@H]3CN(CC4CCOCC4)C[C@@H]3C2)nn1 [Example 113, (3aR,5s,6aS)-N-(6-(2-fluoro-5-methylpyridin-4-yl)-4-(trifluoromethyl)pyridazin-3-yl)-2-((tetrahydro-2H-pyran-4-yl)methyl)octahydro-cyclopenta[c]pyrrol-5-amine]
6 | 32.9 |  | Cn1cc2cc(-c3cc(C(F)(F)F)c(N[C@H]4C[C@@H]5CN(C[C@H]6COCCO6)C[C@@H]5C4)nn3)ccc2n1 [Example 34, (3aR,5s,6aS)-2-(((S)-1,4-dioxan-2-yl)methyl)-N-(6-(2-methyl-2H-indazol-5-yl)-4-(trifluoromethyl)pyridazin-3-yl)octahydro-cyclopenta[c]pyrrol-5-amine]
4 | 55.6 |  | Cc1ccc(F)cc1-c1cc(C(F)(F)F)c(N[C@H]2C[C@@H]3CN(C[C@@H]4CCOC4)C[C@@H]3C2)nn1 [Example 30, (3aR,5s,6aS)-N-(6-(5-fluoro-2-methylphenyl)-4-(trifluoromethyl)pyridazin-3-yl)-2-(((S)-tetrahydrofuran-3-yl)methyl)octahydro-cyclopenta[c]pyrrol-5-amine]
3 | 2.06 |  | Fc1ccc(Cl)c(-c2nnc(N[C@H]3C[C@@H]4CN(CC5CCOCC5)C[C@@H]4C3)cc2C(F)(F)F)c1 [Example 10, (3aR,5s,6aS)-N-(6-(2-chloro-5-fluorophenyl)-5-(trifluoro-methyl)pyridazin-3-yl)-2-((tetrahydro-2H-pyran-4-yl)methyl)octahydro-cyclopenta[c]pyrrol-5-amine]
3 | 46.7 |  | [2H]C([2H])(C1CCOCC1)N1C[C@H]2C[C@H](Nc3nnc(-c4ccc(F)cc4C)cc3C(F)(F)F)C[C@H]2C1 [Example 110, (3aR,5s,6aS)-N-(6-(4-fluoro-2-methylphenyl)-4-(trifluoromethyl)pyridazin-3-yl)-2-((tetrahydro-2H-pyran-4-yl)methyl-d2)octahydro-cyclopenta[c]pyrrol-5-amine]
2 | 0.4 |  | Cc1ccc(F)cc1-c1cc(C#N)c(N[C@H]2C[C@@H]3CN(C[C@H]4COCCO4)C[C@@H]3C2)nn1 [Example 149, 3-(((3aR,5s,6aS)-2-(((S)-1,4-dioxan-2-yl)methyl)octahydro-cyclopenta[c]pyrrol-5-yl)amino)-6-(5-fluoro-2-methylphenyl)pyridazine-4-carbonitrile]
